Values of other authors, collected in patent US20220175673A1, “SURGICAL DEVICE” (Saint Anthony Biomedical, LLC, priority 2017, published 2022).

Test system: Bacteroides, Propionibacterium, Clostridium deficile, Selenomonas
Settings: some strains

**Q.** For [H]/N=C(\N/C(=N/[H])NCCCCCCNC(=N)NC(=N)Nc1ccc(Cl)cc1)Nc1ccc(Cl)cc1 [Chlorhexidine, chlorhexidine], which activity is on record?
**A.** The activity was “active against some strains”.
